Data published in patent publication US11738099B2, “Molecular probes and methods of use” (CASE WESTERN RESERVE UNIVERSITY, priority 2014, dated 2023).
Where no end group is shown, it is not given here.

How the values were obtained:
[1] = tested on: LNCaP prostate tumor xenografts; assay: T1-weighted MRI at 1 Tesla, LNCaP tumors (Example 3); format: in vivo, mouse; conditions: 0.1 mmol/kg i.v., up to 30 min
Procedure: (§1) Male athymic nude mice were purchased from Case Comprehensive Cancer Center (Cleveland, Ohio, USA) and housed in the Animal Core Facility at Case Western Reserve University. All animal experiments were performed in accordance with the animal protocol approved by the CWRU Institutional Animal Care and Use Committee. Athymic nude male mice were subcutaneously injected with 100 μL cell suspension (4×10^7 cells/mL) in matrigel matrix (Corning Bioscience, Corning, N.Y.) to initiate tumors. Mice with tumors of 5-8 mm in diameter were used for imaging studies.
MR images of tumor bearing mice were acquired on an Aspect M3 small animal MRI scanner (1 Tesla). Mice were placed on a holder with the temperature maintained at 37° C., with isoflurane/oxygen mixture supplied to the mice through a nose cone. A thin catheter filled with PBS was connected to a tail vein of the mice. After mice were placed in the coil, a pilot scan was performed to adjust mice to the proper location in the coil. […] Images were exported into DICOM data, which were then processed and analyzed using Matlab (Natick, Mass., USA). The contrast to-noise ratio of tumors in the images were calculated as the difference between tumor mean intensity minus muscle mean intensity, divided by the noise.

[2] = r1 relaxivity by T1 mapping in PC3 tumor lysates; format: physicochemical
[3] = tested on: PC3 prostate tumor xenografts; assay: T1-weighted MRI at 1 Tesla, PC3 tumors (Example 3); format: in vivo, mouse; conditions: 0.1 mmol/kg i.v., up to 30 min, 1 Tesla
Procedure: as §1
MR images of tumor bearing mice were acquired on an Aspect M3 small animal MRI scanner (1 Tesla). Mice were placed on a holder with the temperature maintained at 37° C., with isoflurane/oxygen mixture supplied to the mice through a nose cone. A thin catheter filled with PBS was connected to a tail vein of the mice. After mice were placed in the coil, a pilot scan was performed to adjust mice to the proper location in the coil. An axial T1 weighted sequence (TR=500 ms; TE=9 ms; Flip angle=90°; Field of view=3 cm×3 cm; Matrix size=128×128×8; slice thickness=2 mm; interslice distance=1 mm) was then used to acquire the images of the tumors before and 10 min, 20 min and 30 min after contrast injection. Images were exported into DICOM data, which were then processed and analyzed using Matlab (Natick, Mass., USA). The contrast to-noise ratio of tumors in the images were calculated as the difference between tumor mean intensity minus muscle mean intensity, divided by the noise.

[4] = tested on: PC-3 human prostate cancer xenograft; assay: MRI of PC-3 xenograft (Example 2); format: in vivo, mouse; conditions: 0.1 mmol-Gd/kg intravenous
From the text: The same contrast agent also works for prostate cancer imaging. We then tested the effectiveness of targeting EDB-FN with the contrast agent for prostate cancer MRI in male nude mice bearing primary PC-3 human prostate cancer xenograft.

[5] = tested on: PC3 prostate tumor xenografts; assay: In vivo T1-weighted MRI at 7T, PC3 tumors; set-up: species or system mouse
Procedure: (§2) All MRI experiments were performed on a horizontal 7T Bruker scanner (Bruker Biospin Co., Billerica, Mass.). Imaging experiments were performed when the tumor size reached 5-8 mm in diameter. ZD2-Gd(HP-DO3A) was administered intravenously at the dose of 0.1 mmol/kg after acquiring pre-contrast images. Post-contrast images were obtained at 10 min interval up to 30 min. The axial slices of mouse at the tumor location were acquired using T1-weighted spin echo sequence with the following parameters: field of view (FOV): 3 cm; slice thickness: 1.2 mm; interslice distance: 1.2 mm; TR: 500 ms, TE: 8.1 ms; flip angle: 90°; average: 2; matrix size: 128×128. Contrast-to-noise ratio (CNR) at each time point was calculated by subtraction of the average signal intensity in the tumor and muscle, divided by the standard deviation of image noise. ProHance® (gadoteridol) was used as a control in the imaging experiments.

[6] = tested on: LNCaP prostate tumor xenografts; assay: In vivo T1-weighted MRI at 7T, LNCaP tumors; set-up: species or system mouse
Procedure: as §2

PC3 tumors = assay: In vivo MRI at 1.0 Tesla, PC3 tumor-bearing mice (Example 5); set-up: species or system mouse
Procedure: All MRI experiments were performed on an Aspect M3 compact MRI scanner (1.0 Telsa, Aspect Imaging. Israel). Imaging experiments were performed when the tumor size reached 5-8 mm in diameter. Each contrast agent was administered intravenously at a dose of 0.1 mmol/kg Gd^3+ after acquiring pre-contrast images. ProHance® (gadoteridol) was used as a control in the imaging experiments. Post-contrast images were obtained at 10 min intervals up to 30 min. Axial slices of the mouse at the tumor location were acquired using a T1-weighted spin echo sequence with the following parameters: TR=500 ms, TE=8.144 ms, slice thickness=1 mm, inter-slice gap=0.1 mm, field of view (FOV)=3 cm×3 cm. The total imaging time is 216 seconds. Contrast-to-noise ratio (CNR) at each time point was calculated by measuring the ratios of signal intensities in manually drawn regions of interest (ROIs) in tumor and muscle, and then normalizing to image noise. A 3D FLASH gradient echo sequence was used for whole-body coronal imaging. Imaging parameters were TR=17.362 ms, TE=6 ms, flip angle=15°, slice thickness=1.5 mm, FOV=[…]. The total imaging time is 226 seconds. Each of the 16 slices was acquired immediately after the acquisitions with the T1-weighted spin echo sequence.

[7] = Relaxivity at 1.5T in water, 37° C.; format: physicochemical; conditions: listed as Gd(HP-DO3A)
Procedure: Relaxivity is an important parameter for an MR contrast agent. It reflects how the relaxation rate of the surrounding water proton changes as a function of concentration, and it is directly associated with the agent's contrast enhancing capability during imaging. The relaxivity of the 4 contrast agents was tested at 37° C. in water and compared to Gd(HP-DO3A), Gd-DOTA and ZD2-Gd(HP-DO3A) (FIG. 26). […] Compared to Gd(HP-DO3A), Gd-DOTA, the size increase of the targeted contrast agents due to the peptides and PEG spacer could result in an increase of τR,^[42, 43] thus leading to higher relaxivities.

4T1 metastatic tumors = assay: Fluorescence detection of micrometastasis, breast cancer metastatic tumor model; format: in vivo, mouse; conditions: three hours after 10 nmol injection
Procedure: In order to construct a metastatic tumor model, 0.2×10^6 4T1 tumor cells undergone 5 days of TGFβ induction were injected through left ventricle of heart, resulting in the spread of tumor cells primarily in brain, lung, liver, lymph node, adrenal gland, chest, and bone marrow. Bioluminescent images of the mice at two weeks were used to monitor the growth of tumors. To assess the targeting capacity of l-ZD2-Cy5, brain and lung were harvested from the mice three hours after 10 nmol l-ZD2-Cy5 were injected. […] Normal brain and lung harvested from normal mice injected with l-ZD2-Cy5 were used as negative controls. Examination of bigger metastatic tumors in lymph nodes and adrenal gland, as shown in FIG. 8B further backed up the targeting efficiency of l-ZD2-Cy5.

TGFβ induced 4T1 cells = assay: Binding of Cy5 probes to TGFβ induced 4T1 cells in vitro; format: cell-based
Procedure: As tumor cells produce EDB-FN to promote its migration, we further validated if Cy5 labeled l-ZD2 (l-ZD2-Cy5) can bind to TGFβ induced 4T1 cells in vitro. […] To explain this, we hypothesize that in this form of cell culture, no clot formation can take action to provide binding sites for CREKA-Cy5. To validate our hypothesis, we further produced a 3D culture system that mimics the “soil” of metastatic tumor. In the 3D culture system, 4T1 cells were cultured in a microenvironment containing TGFβ, collagen, and fibrin. […] In overall, these evidences point to the conclusion that the use of EDB-FN for targeting micrometastasis may be advantageous compared with Fibronectin-Fibrin complexes in that EDB-FN appears earlier than Fibronectin-Fibrin in the pre-metastatic niche.

EDB fragment = EDB fragment (Homo sapiens, UniProt P02751); assay: Peptide ELISA of HRP-conjugated peptides on coated EDB; format: binding; conditions: HRP conjugates
Chain of EDB fragment (P02751 1271-1359 limits assumed): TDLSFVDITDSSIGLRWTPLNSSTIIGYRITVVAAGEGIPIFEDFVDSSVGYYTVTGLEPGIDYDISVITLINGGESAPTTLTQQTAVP
Procedure: A linear version of ZD2 (CTVRTSADA) SEQ ID NO: 42 was synthesized so that sulfhydryl group on cysteine could be used for conjugation with maleimide-activated […] (Sigma-Aldrich). Conjugation was carried out as instructed in the manual. The product of conjugation, ZD2-HRP, was used for peptide ELISA assay after coating a 96-well plate with purified EDB. 0.5% BSA in PBS was used to block non-specific binding for later steps. 0.39 μM to 50 μM of ZD2-HRP was incubated with coated EDB for an hour followed by extensive washing with TBST (0.1%). ABTS substrate was added subsequently and allowed to react for 30 min before the absorbance of solution in each well were measured at 415 nm. Non-coated wells added with ABTS were used as blank.
Cyclic ZD2 peptide (CTVRTSADC) (SEQ ID NO: 10) was synthesized using standard solid phase peptide chemistry and was characterized by MALDI-TOF mass spectrometry (FIG. 1C). The peptide was then labeled with a fluorescence chromophore cyanine 5 (Cy5) through a short PEG linker (NH2—(CH2CH2O)—CH2CH2COOH) to give a peptide fluorescence probe ZD2-Cy5. The peptide was also conjugated to peroxidase (ZD2-HRP) and the binding affinity of the peptide to EDB fragment was determined using peptide ELISA assay.
(§3) Similarly, CERAK-HRP is synthesized as a control.

EDA = EDA (Homo sapiens, UniProt P02751); assay: ELISA of l-ZD2-HRP on EDA; format: binding
Chain of EDA (P02751 1727-1814 limits assumed): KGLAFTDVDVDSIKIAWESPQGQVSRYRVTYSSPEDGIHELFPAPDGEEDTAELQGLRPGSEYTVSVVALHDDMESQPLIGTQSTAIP
From the text: as §3

[8] = 0.1 mmol/kg i.v., up to 30 min, 7T

CC(O)CN1CCN(CC(=O)[O-])CCN(CC(=O)[O-])CCN(CC(=O)[O-])CC1.[Gd+3] (centres unmarked) [ProHance, gadoteridol, reference compound]
signal enhancement in LNCaP tumors [1]: modest contrast enhancement
r1 relaxivity [2]: 3.17 mM⁻¹ s⁻¹
signal enhancement in PC3 tumors [3]: modest contrast enhancement
tumor contrast enhancement [4]: little contrast enhancement
signal enhancement in PC3 tumors [5, 8]: modest contrast enhancement
CNR in PC3 tumors ([5]; 10-30 min post-injection): 7˜11
signal enhancement in LNCaP tumors [6, 8]: modest contrast enhancement
CNR in LNCaP tumors ([6]; 10-30 min post-injection): 7˜10
tumor signal enhancement, T1-weighted spin-echo (PC3 tumors; 0.1 mmol/kg i.v., at 10 minutes, remained at least 30 min): modest contrast enhancement
time of peak CNR in PC3 tumors (PC3 tumors; Gd-DOTA conjugates and ProHance, 0.1 mmol/kg): 10 min
CNR in PC3 tumors compared to the peptide targeted contrast agents (PC3 tumors; especially at 20 and 30 min): lower CNR
r1 [7]: 2.9 mM⁻¹ s⁻¹

l-ZD2-Cy5: Cy5 labeled l-ZD2 (TVRTSAD; also: Cy5 labeled, site not given here)
binding to micrometastases on brain and lung (4T1 metastatic tumors): clearly outlined the micrometastases
binding to induced 4T1 cells (TGFβ induced 4T1 cells; cell culture): bound to induced 4T1 cells within 3 hours
binding in 3D culture of 4T1 cells (TGFβ induced 4T1 cells; microenvironment containing TGFβ, collagen, and fibrin): accumulated in the cell periphery starting from day 1

l-ZD2-HRP: NH2-TVRTSADC-COOH conjugated via cysteine thiol to maleimide activated horseradish peroxidase
binding to EDB protein (EDB fragment): comparable to cyclic ZD2 with a slight increase in affinity
binding to EDA (EDA): No binding
